Results taken from paper PMC11820905, “Rational Design, Synthesis, and In Vitro Activity of Heterocyclic Gamma-Butyrobetaines as Potential Carnitine Acetyltransferase Inhibitors” (Molecules, 2025).

Assays:
[1] = target: T1, Carnitine acetyltransferase isolated from pigeon breast muscle (Columba livia, UniProt P52826); test: CAT inhibition, IC50 determination (DTNB/Ellman reaction, absorbance at 405 nm); type: biochemical; conditions: c(L-carnitine) = 50.56 μM; 5 min preincubation at 37 °C; eight inhibitor concentrations, triplicate over three days
T1 construct: CAT (isolated from pigeon breast muscle, ammonium sulfate suspension, CAS Number: 9029-90-7); purchased Sigma-Aldrich; host or cells: pigeon breast muscle (tissue-purified enzyme)
T1 sequence (P52826 31-627): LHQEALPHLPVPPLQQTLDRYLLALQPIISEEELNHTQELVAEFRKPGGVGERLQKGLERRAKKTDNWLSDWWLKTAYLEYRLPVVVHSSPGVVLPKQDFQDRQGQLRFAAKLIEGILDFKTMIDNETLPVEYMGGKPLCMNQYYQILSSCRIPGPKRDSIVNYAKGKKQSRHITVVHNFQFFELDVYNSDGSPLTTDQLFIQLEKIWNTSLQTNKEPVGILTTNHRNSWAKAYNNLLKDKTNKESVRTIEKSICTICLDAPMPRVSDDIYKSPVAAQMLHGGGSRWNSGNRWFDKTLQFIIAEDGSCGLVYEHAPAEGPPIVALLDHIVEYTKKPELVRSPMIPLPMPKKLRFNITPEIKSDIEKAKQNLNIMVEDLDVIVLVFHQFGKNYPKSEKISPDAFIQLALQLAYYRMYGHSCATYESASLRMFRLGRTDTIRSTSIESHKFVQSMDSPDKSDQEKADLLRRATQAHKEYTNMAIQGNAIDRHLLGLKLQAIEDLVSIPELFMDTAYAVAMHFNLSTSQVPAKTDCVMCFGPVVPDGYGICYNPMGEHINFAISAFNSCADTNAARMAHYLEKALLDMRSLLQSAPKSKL
Excerpt: To assess the impact of the synthesized compounds on CAT activity and establish the structure-activity relationship, we initially determined the concentration needed to reduce the enzyme activity by 50% (IC50) under the same reaction conditions. We slightly modified a method proposed by Marquis and Fritz, which allows for the quantification of the consumed L-carnitine by observing its conversion to acetyl L-carnitine using a reaction with 5,5′-dithiobis-(2-nitrobenzoic acid) (DTNB or Ellman’s reagent) and CoA to produce 2-nitro-5-thiobenzoic acid (TNB). We opted to determine the IC50 at a substrate concentration that yields a [S]/Km ratio of about 0.01 (c(L-carnitine) = 50.56 μM and Km = 3.0 mM) to ensure that the IC50 is virtually independent of [S]. We also used a kinetic approach, measuring the reaction rate over a time interval Δt, during which the dependence is linear (approximately 10–15% substrate conversion). The readings were taken within the first minute after the reaction began, and the degree of inhibition was determined as described in Section 3.3.1. The IC50 values for each compound were obtained by analyzing the percentage inhibition at eight different inhibitor concentrations, with each measurement conducted in triplicate over three consecutive days. The average values of the IC50 obtained are outlined in Figure 4.
(§1) Carnitine acetyltransferase isolated from pigeon breast muscle, ammonium sulfate suspension (CAS Number: 9029-90-7), with activity 71 U/mg protein (1U converts 1 μmol L-carnitine and 1 μmol AcCoA in Acetylcarnitine and free CoA in 1 min) was diluted with phosphate buffer (0.5 M, pH = 7.6) to obtain stock solution with concentration 24 U/mL. Ellman reagent was freshly prepared just before use by dissolving 25 mg DTNB in 5 mL 1 mM solution of Na2EDTA in phosphate buffer (0.5 M, pH = 7.6), the final concentration of DTNB in this solution being 12.8 mM. AcCoA, L-carnitine, and each of the tested compounds were dissolved in distilled water in order to obtain desired stock solutions with concentration c (AcCoA) = 348.0 μM and c (L-carnitine) = 303.4 μM (for IC50 determination). Tris-buffer solution was prepared by dissolving Tris. HCl in distilled water and pH was adjusted with NaOH to pH = 7.6, the final concentration of the solution being 1 M. The final volume of the reaction mixture was 300 μL, which included 50 μL of each stock solution of CAT, AcCoA, L-carnitine, DTNB, Tris-buffer, and test compound. In control probes, 50 μL distilled water was added instead of test compound. A mixture of CAT, AcCoA, DTNB, Tris-buffer, and test compounds were incubated for 5 min at 37 °C. The reaction was initiated by adding L-carnitine, and the reaction rate was monitored by measuring the absorbance at 405 nm.
Inhibition activity was assessed by calculating the reaction rate during the initial minute, within the linear range of A/t, utilizing the following formula:%Inh = 100 × ((ΔA/Δt)control − (ΔA/Δt) Inh)/((ΔA/Δt) control)
To obtain preliminary data for the IC50 values, we initially screened each compound at a final concentration of 5 mM. […] The half-maximal inhibitory concentration (IC50) was determined by plotting the response (A) against the concentration (c) of the inhibitor. All analyses were performed in triplicate over three consecutive days, and the corresponding IC50 values were averaged.

[2] = target: T1, Carnitine acetyltransferase isolated from pigeon breast muscle; test: CAT enzyme kinetics, mechanism of inhibition and Ki; type: biochemical
Method: Substrate concentrations were selected in the range of 0.2 to five times the Km value (Km = 0.3 mM) to facilitate effective inhibition detection at elevated levels while ensuring sufficient substrate availability for the reaction at increased inhibitor concentrations. […] The experiments enabled identification of the inhibition mechanism alongside calculations of Km, Vmax, and Ki. We utilized SigmaPlot version 12.5 (Systat Software Inc. San Jose, CA, USA), which incorporates modules for regression analysis and various inhibition models. The numerical results are summarized in Table 3, while the corresponding Lineweaver –Burk and Michaelis–Menten kinetic plots are available in the Supplementary Materials.
as §1, with “HCl in distilled water and pH was adjusted with NaOH to pH = 7.6, the final concentration of the solution being 1 M. The final volume of the reaction mixture was 300 μL, which included 50 μL of each stock solution of CAT, AcCoA, L-carnitine, DTNB, Tris-buffer, and test compound. In control probes, 50 μL distilled water was added instead of test compound. A mixture of CAT, AcCoA, DTNB, Tris-buffer, and test compounds were incubated for 5 min at 37 °C.” left out
The absorbance at 405 nm was measured every 6 s between the 30th second and the 3rd minute for all probes (in the linear range). The initial velocity (v0) was determined as the intercept of the velocity (v) versus time (t) graph. […]

CAT = target: CAT; design: method as in PMID 19912061; conditions: comparison value for the established drug; no kinetic study of it described here; no reference printed at the place (cf. ref 44); cited from earlier work

IC50 [1] [mM] | Structure (SMILES) | other results
43.6 ± 4.2 | O=C([O-])CCC[n+]1ccccc1 [Pyr-GBB, 4-(pyridin-1-ium-1-yl)butanoate] | 
22.8 ± 1.8 | CCOC(=O)CCC[N+]1(C)CCCCC1 [Compound 2-ester, 1-(4-ethoxy-4-oxobutyl)-1-methylpiperidin-1-ium bromide] | 
29.9 ± 1.5 | CCOC(=O)CCC[N+]1(C)CCOCC1 [Compound 3-ester, 4-(4-ethoxy-4-oxobutyl)-4-methylmorpholin-4-ium bromide] | 
5.78 ± 1.2 | C[N+]1(CCCC(=O)[O-])CCCCC1 [Pip-GBB, 4-(1-methylpiperidin-1-ium-1-yl)butanoate] | 
23.7 ± 2.2 | C[N+]1(CCCC(=O)[O-])CCOCC1 [Morph-GBB, 4-(4-methylmorpholino-4-ium)butanoate] | 
14.1 ± 1.91 | C[N+]1(CCCC(=O)[O-])CCCC1 [Pyrr-GBB, 4-(1-methylpyrrolidin-1-ium-1-yl)butanoate] | 
11.4 | C[N+](C)(C)NCCC(=O)[O-] [Meldonium, reference compound] | Ki (CAT): 1.63 mM
21.6 ± 1.4 | CCOC(=O)CCC[N+](C)(C)CC [MeGBB-ester, 4-ethoxy-N-ethyl-N,N-dimethyl-4-oxobutan-1-aminium bromide, reference compound] | 
28.5 ± 0.6 | CCOC(=O)CCC[N+]1(C)CCCC1 [Compound 1-ester, 1-(4-ethoxy-4-oxobutyl)-1-methylpyrrolidin-1-ium bromide] | 
10.4 ± 1.5 | CN(C)c1cc[n+](CCCC(=O)[O-])cc1 [DMAP-GBB, 4-(4-(dimethylamino)pyridin-1-ium-1-yl)butanoate] | 
9.32 ± 0.47 | CC[N+](C)(C)CCCC(=O)[O-] [MeGBB, 4-(ethyldimethylammonio)butanoate, reference compound] | 
14 ± 0.9 | Cn1cc[n+](CCCC(=O)[O-])c1 [Mim-GBB, 4-(1-methyl-1H-imidazol-3-ium-3-yl)butanoate] | 

Structure (SMILES) | IC50 [1] [mM] | other results
O=C([O-])CCC[n+]1ccc2ccccc2c1 [i-qui-GBB, 4-(isoquinolin-2-ium-2-yl)butanoate] | 2.24 ± 0.21 | Type of inhibition of CAT ([2]; best fit: highest R^2, lowest AIC): competitive inhibitor; Ki ([2]; competitive model, nonlinear regression (SigmaPlot), inhibitor 1.88 mM and 3.75 mM): 3.5 mM; Inhibition of CAT reaction rate versus blank samples ([2]; inhibitor concentration 0.94 mM): lack of inhibition
